Measured values as given in the supplement of paper PMC10307832.

Columns and labels:
Experiment in all cases: relative viability (nuclei count vs DMSO), 5 days (fraction); higher = more cells survive
[1] = compound: CCOc1cc2ncc(C#N)c(Nc3ccc(OCc4ccccn4)c(Cl)c3)c2cc1NC(=O)/C=C/CN(C)C [Neratinib] + CC(=O)Nc1cccc(-n2c(=O)n(C3CC3)c(=O)c3c(Nc4ccc(I)cc4F)n(C)c(=O)c(C)c32)c1 [Trametinib] (partner 0.02 µM)
Outline: (§1)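 Relative viability is defined as nuclei in treated wells over nuclei in vehicle wells. Duplicate plates were run and medians reported. Lung cancer cell lines in 1536-well plates were dosed by pin tool one day after seeding, with one drug or with a fixed anchor-drug dose plus five library-drug doses (not always all listed) in √10 steps, and nuclei were counted after 5 days.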

[2] = compound: CCOc1cc2ncc(C#N)c(Nc3ccc(OCc4ccccn4)c(Cl)c3)c2cc1NC(=O)/C=C/CN(C)C [Neratinib] + COc1cccc2cc(-c3nc([C@H]4CC[C@H](C(=O)O)CC4)n4ncnc(N)c34)[nH]c12 [OSI-027] (partner 0.5 µM)
Outline: as §1

[3] = compound: CCOc1cc2ncc(C#N)c(Nc3ccc(OCc4ccccn4)c(Cl)c3)c2cc1NC(=O)/C=C/CN(C)C [Neratinib] + CS(=O)(=O)CCNCc1ccc(-c2ccc3ncnc(Nc4ccc(OCc5cccc(F)c5)c(Cl)c4)c3c2)o1 [Lapatinib] (partner 2 µM)
Outline: as §1

[4] = compound: CCOc1cc2ncc(C#N)c(Nc3ccc(OCc4ccccn4)c(Cl)c3)c2cc1NC(=O)/C=C/CN(C)C [Neratinib] + C[C@]1(O)C[C@@H](c2nc(-c3ccc4ccc(-c5ccccc5)nc4c3)c3c(N)nccn32)C1 [Linsitinib] (partner 1 µM)
Outline: as §1

Cell Line | relative viability ([1]; first compound 0.01 µM) | relative viability ([1]; first compound 0.03162 µM) | relative viability ([1]; first compound 0.1 µM) | relative viability ([1]; first compound 0.3162 µM) | relative viability ([1]; first compound 1 µM) | relative viability ([2]; first compound 0.01 µM) | relative viability ([2]; first compound 0.03162 µM) | relative viability ([2]; first compound 0.1 µM) | relative viability ([2]; first compound 0.3162 µM) | relative viability ([2]; first compound 1 µM) | relative viability ([3]; first compound 0.01 µM) | relative viability ([3]; first compound 0.03162 µM) | relative viability ([3]; first compound 0.1 µM) | relative viability ([3]; first compound 0.3162 µM) | relative viability ([3]; first compound 1 µM) | relative viability ([4]; first compound 0.01 µM) | relative viability ([4]; first compound 0.1 µM) | relative viability ([4]; first compound 0.3162 µM) | relative viability ([4]; first compound 1 µM) | relative viability ([4]; first compound 0.03162 µM)
NCI-H23 | 0.397 | 0.401 | 0.35 | 0.342 | 0.251 | 0.717 | 0.664 | 0.561 | 0.504 | 0.296 | 1.05 | 0.932 | 1.09 | 1.02 | 0.762 | 0.62 | 0.486 | 0.552 | 0.398 | 
NCI-H322M | 0.519 | 0.486 | 0.506 | 0.488 | 0.373 | 0.515 | 0.592 | 0.519 | 0.365 | 0.307 | 0.587 | 0.569 | 0.522 | 0.567 | 0.449 | 0.752 | 0.793 | 0.486 | 0.337 | 0.929
NCI-H358 | 0.119 | 0.118 | 0.0959 | 0.121 | 0.125 | 0.65 | 0.514 | 0.275 | 0.117 | 0.107 | 0.502 | 0.47 | 0.42 | 0.405 | 0.237 |  | 0.264 | 0.26 | 0.205 | 
NCI-H460 | 0.233 | 0.116 | 0.083 | 0.154 | 0.0847 | 0.61 | 0.891 | 0.596 | 0.419 | 0.0301 | 1.15 | 1.38 |  | 0.921 | 0.557 | 0.918 |  | 0.612 | 0.222 | 1.1
NCI-H520 | 0.642 | 0.804 |  | 0.605 | 0.421 | 0.288 | 0.253 | 0.261 | 0.234 | 0.178 | 1 | 1 | 0.858 |  | 0.682 | 1.04 | 1.08 | 0.742 |  | 0.981
NCI-H596 | 0.825 | 0.947 | 0.765 | 0.707 | 0.641 | 0.771 | 0.822 | 0.686 | 0.704 | 0.386 | 1.2 | 1.06 |  | 1.13 | 0.859 | 1.2 | 0.995 | 0.923 | 0.791 | 1.07
NCI-H647 | 0.439 | 0.543 | 0.366 | 0.466 | 0.229 | 0.831 | 0.738 | 0.593 | 0.483 | 0.175 | 0.989 | 1.27 | 0.857 | 1 | 0.802 | 1.08 | 1.14 | 1.07 | 0.601 | 1.16
NCI-H650 | 0.968 | 1.03 | 1.16 |  | 0.937 | 0.546 | 0.544 | 0.553 | 0.46 | 0.456 | 1.04 | 1.02 | 0.996 |  | 1.04 | 1 | 1.03 |  | 0.577 | 0.986
NCI-H661 | 0.63 | 0.568 | 0.447 | 0.352 | 0.276 | 0.688 | 0.615 | 0.54 | 0.325 | 0.24 | 0.563 | 0.45 | 0.431 | 0.427 | 0.312 | 0.621 | 0.499 | 0.299 | 0.197 | 0.536
NCI-H727 | 0.398 | 0.427 |  | 0.355 | 0.332 | 0.58 | 0.68 | 0.466 | 0.638 | 0.406 | 0.898 | 0.994 |  | 0.928 | 0.786 | 0.244 |  | 0.286 | 0.255 | 0.282
NCI-H838 | 0.53 | 0.554 | 0.502 | 0.499 | 0.281 | 0.463 | 0.492 | 0.419 | 0.325 | 0.226 | 1.11 | 1.2 | 0.949 | 0.947 | 0.468 | 1.06 | 0.945 | 0.819 | 0.409 | 1.17
NCI-H1355 | 0.422 | 0.421 | 0.344 | 0.361 | 0.349 | 0.402 | 0.379 | 0.346 | 0.358 | 0.277 | 1.09 | 1.06 | 1.04 | 0.984 | 0.938 | 0.894 | 0.775 | 0.63 | 0.453 | 0.825
NCI-H1395 | 1.18 | 1.18 | 1.11 | 1.11 | 0.65 |  | 0.748 | 0.632 | 0.623 | 0.468 | 1.02 | 1.54 | 1.11 | 1.22 | 0.784 | 1.13 | 0.991 | 1.2 | 0.619 | 1.24
NCI-H1437 | 0.488 | 0.579 | 0.485 | 0.424 | 0.328 | 0.851 | 0.886 | 0.812 | 0.763 | 0.759 | 0.911 | 0.881 | 0.771 | 0.721 | 0.703 | 1.27 |  | 0.793 | 0.723 | 1.1
NCI-H1651 | 0.87 |  | 0.793 | 0.759 | 0.609 | 0.769 | 0.838 | 0.627 | 0.564 | 0.337 | 0.881 | 1.01 | 0.77 |  | 0.68 | 1.13 | 0.911 | 0.747 | 0.786 | 0.925
NCI-H1666 | 0.868 | 0.815 | 0.712 | 0.637 | 0.78 | 0.901 | 0.905 | 0.751 | 0.552 | 0.683 | 1.02 | 0.769 | 0.546 | 0.673 | 0.596 | 0.876 | 0.591 | 0.372 | 0.361 | 0.654
NCI-H1734 | 0.781 | 0.788 | 0.587 |  | 0.503 | 0.659 | 0.638 |  | 0.552 | 0.331 | 1.28 | 1.1 | 0.909 | 1.06 | 0.829 | 0.997 | 0.814 | 0.754 | 0.646 | 0.925
NCI-H1755 | 0.761 | 0.814 | 0.646 | 0.752 | 0.809 | 0.795 | 0.785 | 0.721 | 0.695 | 0.528 | 1.03 | 1.07 | 0.969 | 1.12 | 1.09 | 1.04 | 0.911 | 1.05 | 0.775 | 0.988
NCI-H1792 | 0.476 | 0.663 | 0.423 | 0.39 | 0.26 | 0.825 | 0.87 | 0.698 | 0.692 | 0.424 | 1.02 | 1.08 | 0.547 | 0.81 | 0.849 | 0.505 | 0.53 | 0.489 | 0.463 | 0.468
NCI-H1793 | 0.454 | 0.509 | 0.407 | 0.361 | 0.253 | 0.309 | 0.26 | 0.237 | 0.167 | 0.145 | 0.693 | 0.646 | 0.576 | 0.75 | 0.642 | 0.863 | 0.494 | 0.596 | 0.364 | 1.03
NCI-H1915 | 0.32 | 0.314 | 0.294 | 0.299 | 0.23 | 0.697 | 0.67 | 0.294 | 0.595 | 0.424 | 1.05 | 1.05 | 0.898 | 0.832 | 0.964 | 1.11 |  | 1.09 | 0.874 | 1.13
NCI-H1944 | 0.434 | 0.396 | 0.364 | 0.311 | 0.286 | 0.467 | 0.419 | 0.337 | 0.286 | 0.289 | 1.17 | 0.845 | 0.732 | 0.836 | 0.705 | 1.28 | 0.93 | 0.645 | 0.435 | 1.08
NCI-H1975 | 0.388 | 0.542 | 0.373 | 0.233 | 0.165 | 0.826 | 0.921 | 0.629 | 0.25 | 0.177 | 1.09 | 0.972 | 0.609 | 0.403 | 0.191 | 1.13 | 0.78 | 0.285 | 0.223 | 1.12
NCI-H1993 | 0.445 | 0.505 | 0.512 | 0.419 | 0.54 | 0.387 | 0.576 | 0.655 | 0.643 | 0.674 | 0.88 | 0.795 | 0.79 | 0.845 | 0.803 | 0.833 | 0.71 | 0.648 | 0.838 | 0.659
NCI-H2009 | 0.301 | 0.262 | 0.307 | 0.266 | 0.179 | 0.677 | 0.762 | 0.59 | 0.467 | 0.304 | 0.939 | 1.15 | 0.862 | 0.834 | 1.52 | 1.2 | 0.85 | 1.18 |  | 1.15
NCI-H2023 | 0.594 | 0.491 | 0.371 | 0.43 | 0.399 | 0.432 | 0.493 | 0.31 | 0.331 | 0.179 | 0.888 | 0.804 | 0.758 | 0.878 | 0.723 | 0.658 | 0.465 | 0.446 | 0.303 | 0.675
NCI-H2085 | 0.605 | 0.698 | 0.545 | 0.397 | 0.315 | 0.736 | 0.882 | 0.647 | 0.398 | 0.266 | 0.76 | 0.887 | 0.767 | 0.71 | 0.699 | 0.858 | 0.81 | 0.668 | 0.474 | 1.11
NCI-H2087 | 0.19 | 0.173 | 0.15 | 0.194 | 0.16 |  | 0.634 | 0.471 | 0.335 | 0.267 | 1.02 | 0.995 |  | 0.989 | 0.894 | 0.951 |  | 0.765 | 0.615 | 0.949
